Assay results published in patent US20190210969A1, “INTRAESOPHAGEAL ADMINISTRATION OF TARGETED NITROXIDE AGENTS FOR PROTECTION AGAINST IONIZING IRRADIATION-INDUCED ESOPHAGITIS” (University of Pittsburgh - Of the Commonwealth System of …, priority 2010, published 2019).

Key:
Assay type in all cases: in vivo, mouse
[1] = test system: mice exposed to total body irradiation; assay: Survival of mice after total body irradiation; details: for protection from death: vs TEMPO or F14 alone, preliminary data
Experimental: In FIG. 4A, mice received intraperitoneal injection of 10 mg per kilogram of each of the chemicals indicated, then 24 hours later received 9.75 Gy total body irradiation according to published methods. Mice were followed for survival according to IACUC regulations. […] (P=0.0008). In FIG. 4B, mice received intraperitoneal injection of JP4-039 either 10 minutes before (square symbols) or 4 hours after (triangle symbols) irradiation with 9.75 Gy.
Groups of 15 mice received intraperitoneal injection of 10 mg. per kilogram of each indicated GS-nitroxide compound or carrier (Cremphora plus alcohol at 1 to 1 ratio, then diluted 1 to 10 in distilled water). Mice received 10 mg per kilogram intra-peritoneal injection 24 hours prior to total body irradiation. Control mice received radiation alone. […] (P=0.0005) FIG. 6 is a graph showing that GS-nitroxide JP4-039 is an effective hematopoietic cell radiation mitigator when delivered 24 hr after irradiation. Irradiation survival curves were performed on cells from the 32D cl 3 mouse hematopoietic progenitor cell line, incubated in 10 μM JP4-039 for 1 hour before irradiation, or plated in methylcellulose containing 10 μM […] after irradiation. Cells were irradiated from 0 to 8 Gy, plated in 0.8% methylcellulose containing media, and incubated for 7 days at 37° C. Colonies of greater than 50 cells were counted and data analyzed by linear quadratic and single-hit, multi-target models.
The above methods are based on preliminary data showing that JP4-039 administered via i.p. injection at 10 mg/kg 10 minutes before either […] [FIG. 21A] or 9.15 Gy [FIG. 21B] total-body irradiation protected C57BL/6NHsd female mice from esophagitis-induced death compared to those that received either TEMPO or F14 alone (p=0.0301 and p=0.010, respectively).

[2] = test system: C57BL/6NHsd mice, upper body irradiation; assay: Survival after upper body (thoracic) irradiation, irradiation-induced esophagitis; details: for protection (survival): 4 μg JP4-039 in 110 μl F15 10 minutes before, MnSOD-PL 24 hours prior, preliminary data
Text: Animals and animal care. C57BL/6HNsd female and C57BL/6JHNsd-GFP male mice (22-22 gm) were housed, five per cage and fed standard laboratory chow according to previous publications (3). C57BL/6NHsd mice (15 per group) were irradiated (details are given in the next section) and received swallowed JP4-039 or MnSOD-PL pre- or post-radiation. The mice were monitored for development of esophagitis.
Irradiation. Mice were irradiated to 28 or 29 Gy to the upper body using a JL Shepherd Mark I cesium irradiator (J.L. Shepherd and Associates, San Fernando, Ca, USA) ([…]), according to published methods (Epperly M W, et al. Zhang X, Nie S, Cao S, Kagan V, Tyurin V and Greenberger J S: MnSOD-plasmid liposome gene therapy effects on ionizing irradiation induced lipid peroxidation of the esophagus. In Vivo 19: 997-1004, 2005). The head and abdomen were shielded, as described previously (Stickle R L, et al. Prevention of irradiation-induced esophagitis by plasmid/liposome delivery of the human manganese superoxide dismutase (MnSOD) transgene. Radiat Oncol Invest Clinical & Basic Res 7: 204-217, 1999), so that only the thoracic cavity received irradiation.
Intraesophageal drug administration. The methods for preparation of MnSOD-plasmid liposomes using PNVL3 lipid have been published previously (Epperly M W, et al. Modulation of radiation-induced cytokine elevation associated with esophagitis and esophageal stricture by manganese superoxide dismutase-plasmid/liposome (MnSOD-PL) gene therapy. Radiat Res 155: 2-14, 2001). Briefly, 100 μl liposomes containing […] plasmid were injected by syringe intraesophageally into non-anesthetized mice immediately after they received 100 μl distilled water.
The stock solutions described above were diluted, so that the total amount of JP4-039 administered to each animal was 400 μg. Mice were immobilized for irradiation with intraperitoneal Nembutal anesthesia after administration of JP4-039 as described above. Mice were exposed to single-dose (29 Gy) or fractionated radiation (11.5 Gy per day for four days) to the upper body.

[3] = Uptake of swallowed JP4-039 in esophageal SP cells incl. GFP+ marrow chimeric mice

Q: With CC(C)C[C@@H](/C=C/CC(=O)NC1CC(C)(C)N([O])C(C)(C)C1)NC(=O)OC(C)(C)C [JP4-039, TEMPO-4-yl-(S,E)-5-(tert-butoxycarbonylamino)-7-methyloct-3-enamide] as the compound, how does the protection from death ([1]; 10 mg/kg i.p. 10 minutes before 9/5 Gy total-body irradiation, p=0.0301) read?
A: The protection from death was “protected”.

Q: And the protection from death ([1]; 10 mg/kg i.p. 10 minutes before 9.15 Gy total-body irradiation, p=0.010)?
A: Its protection from death is “protected”.

Q: What about the survival of mice ([1]; 10 mg/kg i.p. 24 hours before 9.75 Gy total body irradiation, vs irradiated control, P=0.0008) of the same compound?
A: Its survival of mice is “significant increase in survival”.

Q: What about the survival of mice ([1]; 10 mg/kg i.p. 24 hours prior to 9.5 Gy total body irradiation, P=0.0005) of the same compound?
A: The survival of mice was “increases survival”.

Q: And the survival ([2]; 400 μg in F15 immediately prior to single fraction 29 Gy thoracic irradiation, vs F15 vehicle only, p=0.0384)?
A: The survival was “increased survival”.

Q: What about the “protection (survival)” value ([2]; 29 Gy upper body irradiation, vs F15 or radiation alone) of the same compound?
A: The value was “protective”.

Q: And the “protection (survival)” value ([2]; four daily sessions of 12 Gy, p=0.0430)?
A: Its value is “protective”.

Q: And the survival ([2]; prior to each of four fractions of 11.5 Gy thoracic irradiation, vs F15 only, p=0.0388)?
A: Its survival is “increased survival”.

Q: What about the “uptake in GFP+ esophageal (SP) stem cells” value ([3]; GFP+ marrow chimeric mice) of the same compound?
A: Its value is “reaches GFP+ esophageal (SP) stem cells”.

Q: What about the “uptake in esophageal SP cells” value ([3]; preliminary data) of the same compound?
A: The value was “reaches SP cells”.
